Results published in patent US20210189342A1, “COMPOSITIONS AND METHODS FOR MODULATING MONOCYTE AND MACROPHAGE INFLAMMATORY PHENOTYPES AND IMMUNOTHERAPY USES THEREOF” (Verseau Therapeutics, Inc., priority 2018, published 2021).

The substances below were run on CD53 (assay: siRNA dose response, CD53 mRNA knockdown, bDNA Assay). Conditions: THP-1, 24 hr.
Type: cell-based, human
Experimental: (§1) Dose response curves for siRNAs were generated in vitro using a variety of cell lines according to Table 4.
(§2) Briefly, cells were seeded in 96-well plates and reverse transfected with siRNA, Lipofectamine® 2000 (0.5 uL/well; ThermoFisher), and, in some cases, a reporter plasmid (50 ng/well). The reporter plasmid (psiCHECK™-2, Promega) encoded both firefly luciferase and the gene of interest fused to renilla luciferase; silencing of the gene of interest results in proportional silencing of renilla luciferase but leaves firefly luciferase unaffected as an internal control.
(§3) After 24 hr incubation at 37° C., mRNA knockdown was measured using an endpoint assay. For targets without a reporter plasmid, a branched DNA (bDNA) assay was performed according to the manufacturer's instructions (QuantiGene® Singleplex Gene Expression Assay, ThermoFisher) to measure both the target gene and GAPDH (housekeeping gene) mRNA. Data are plotted as siRNA concentration (nM) vs. remaining mRNA (ratio of target gene to GAPDH, normalized to mock siRNA-transfected cells). For targets with a reporter plasmid, a Dual-Glo® Luciferase Assay was performed according to the manufacturer's instructions (Promega) to measure firefly and renilla luciferase expression. Data are plotted as siRNA concentration (nM) vs. remaining mRNA (ratio of renilla to firefly luminescence, normalized to mock siRNA-transfected cells).
(§4) For all dose response curves, a 4-parameter logistic model was applied to determine the IC50 of each siRNA sequence (Table 5 and FIG. 2). Data shown in Table 5 and FIG. 2 represent the mean of quadruplicates, +/−standard deviation.
Work on “XD-09205: siRNA targeting CD53 (sense 5'-acuAAuAucuGAGcAucuudTsdT-3'; antisense 5'-AAGAUGCUcAGAuAUuAGUdTsdT-3'; as printed in the source, key not given here)” yielded an IC50 of 0.132 nM. “XD-09207: siRNA targeting CD53 (sense 5'-agGGcAAGAucucauuucAdTsdT-3'; antisense 5'-UGAAAUGAGAUCUUGCCCUdTsdT-3'; as printed in the source, key not given here)” was tested, and the IC50 was 0.038 nM. “XD-09208: siRNA targeting CD53 (sense 5'-uuuAuuAGAGGGccuuAuudTsdT-3'; antisense 5'-AAuAAGGCCCUCuAAuAAAdTsdT-3'; as printed in the source, key not given here)” showed an IC50 of 0.162 nM. In the case of “XD-09209: siRNA targeting CD53 (sense 5'-auuGAuGuGuucuaAGucudTsdT-3'; antisense 5'-AGACUuAGAAcAcAUcAAUdTsdT-3'; as printed in the source, key not given here)”, the IC50 is reported as 0.041 nM.

What follows are substances tested on DOCK2 (assay: siRNA dose response, DOCK2 mRNA knockdown, bDNA Assay). Conditions: THP-1, 24 hr.
Type: cell-based, human
Experimental: as §1, §2, §3, §4
With “XD-09691: siRNA targeting DOCK2 (sense 5'-ggGGAuAccucAuaAAGcAdTsdT-3'; antisense 5'-UGCUUuAUGAGGuAUCCCCdTsdT-3'; RNA with 2'-O-methyl and phosphorothioate modifications, case key not given here, as printed in the source, key not given here)” the IC50 was 11.7 nM. Work on “XD-09694: siRNA targeting DOCK2 (sense 5'-ccAucuGcGAuucauGuuudTsdT-3'; antisense 5'-AAAcAUGAAUCGcAGAUGGdTsdT-3'; RNA with 2'-O-methyl and phosphorothioate modifications, case key not given here, as printed in the source, key not given here)” yielded an IC50 of 0.403 nM. Work on “XD-09696: siRNA targeting DOCK2 (sense 5'-cucAuuGcAGAccgGAAAudTsdT-3'; antisense 5'-AUUUCCGGUCUGcAAUGAGdTsdT-3'; RNA with 2'-O-methyl and phosphorothioate modifications, case key not given here, as printed in the source, key not given here)” yielded an IC50 of 1.77 nM. For “XD-09697: siRNA targeting DOCK2 (sense 5'-accGGAAAuuucAgcAuuudTsdT-3'; antisense 5'-AAAUGCUGAAAUUUCCGGUdTsdT-3'; RNA with 2'-O-methyl and phosphorothioate modifications, case key not given here, as printed in the source, key not given here)”, the IC50 was 0.556 nM. “XD-09698: siRNA targeting DOCK2 (sense 5'-ggucGAGGAcAuuauuuucdTsdT-3'; antisense 5'-GAAAAuAAUGUCCUCGACCdTsdT-3'; as printed in the source, key not given here)” showed an IC50 of 1.36 nM.

These substances were tested on LRRC25 (assay: siRNA dose response, LRRC25 mRNA knockdown, Dual-Glo Luciferase Assay). Conditions: Hepa1-6 + reporter plasmid, 24 hr.
Type: cell-based, human
Experimental: as §1, §2, §3, §4
With “XD-09250: siRNA targeting LRRC25 (sense 5'-gccAGAGGAAcGccAGcGAdTsdT-3'; antisense 5'-UCGCUGGCGUUCCUCUGGCdTsdT-3'; as printed in the source, key not given here)” the IC50 was 15 nM. Substance “XD-09251: siRNA targeting LRRC25 (sense 5'-gccGucGcuuuuccAGcAudTsdT-3'; antisense 5'-AUGCUGGAAAAGCGACGGCdTsdT-3'; RNA with 2'-O-methyl and phosphorothioate modifications, case key not given here, as printed in the source, key not given here)” has an IC50 of 2.77 nM. In the case of “XD-09256: siRNA targeting LRRC25 (sense 5'-ccGAcuAuGAGAAcAuGuudTsdT-3'; antisense 5'-AAcAUGUUCUcAuAGUCGGdTsdT-3'; as printed in the source, key not given here)”, the IC50 is reported as 0.601 nM. “XD-09258: siRNA targeting LRRC25 (sense 5'-caAuAAAuGcuucgAGGcudTsdT-3'; antisense 5'-AGCCUCGAAGcAUUuAUUGdTsdT-3'; RNA with 2'-O-methyl and phosphorothioate modifications, case key not given here, as printed in the source, key not given here)” gave an IC50 of 0.033 nM. For “XD-09259: siRNA targeting LRRC25 (sense 5'-cuucGAGGcuGAugAGGcudTsdT-3'; antisense 5'-AGCCUcAUcAGCCUCGAAGdTsdT-3'; RNA with 2'-O-methyl and phosphorothioate modifications, case key not given here, as printed in the source, key not given here)”, the IC50 was 0.293 nM.

The substances below were run on FERMT3 (assay: siRNA dose response, FERMT3 mRNA knockdown, bDNA Assay). Conditions: THP-1, 24 hr.
Type: cell-based, human
Experimental: as §1, §2, §3, §4
For “XD-09701: siRNA targeting FERMT3 (sense 5'-ggcuGcGcuucAAguAcuAdTsdT-3'; antisense 5'-uAGuACUUGAAGCGcAGCCdTsdT-3'; RNA with 2'-O-methyl and phosphorothioate modifications, case key not given here, as printed in the source, key not given here)”, the IC50 was 0.921 nM. “XD-09705: siRNA targeting FERMT3 (sense 5'-guucccGAuGuuAacGucudTsdT-3'; antisense 5'-AGACGUuAAcAUCGGGAACdTsdT-3'; RNA with 2'-O-methyl and phosphorothioate modifications, case key not given here, as printed in the source, key not given here)” gave an IC50 of 6.75 nM. “XD-09708: siRNA targeting FERMT3 (sense 5'-gcuGccGAAuuGuacAcGAdTsdT-3'; antisense 5'-UCGUGuAcAAUUCGGcAGCdTsdT-3'; RNA with 2'-O-methyl and phosphorothioate modifications, case key not given here, as printed in the source, key not given here)” was tested, and the IC50 was 0.012 nM. Work on “XD-09709: siRNA targeting FERMT3 (sense 5'-guAGcuAcAGGAugAuGAAdTsdT-3'; antisense 5'-UUcAUcAUCCUGuAGCuACdTsdT-3'; RNA with 2'-O-methyl and phosphorothioate modifications, case key not given here, as printed in the source, key not given here)” yielded an IC50 of 0.048 nM.
